Active and inactive are the calls of the source.
Tests used:
[1] = target: T1, Protein phosphatase methylesterase 1 (Homo sapiens, UniProt Q9Y570); assay: Late stage results from the probe development effort to identify inhibitors of the protein methylesterase PME-1: Gel-based Activity-Based Protein Profiling (ABPP) IC50: Purified enzyme.; assay type: functional
[2] = target: T1, Protein phosphatase methylesterase 1; assay: PME-1 inhibitor potency by in-gel ABPP, dose response, selectivity assay for PME-1 inhibitor project, cell lysate, mouse brain cytosol, FP-rhodamine, panel member PME-1 Assay Panel member description: Inhibition of endogenously expressed PME-1 (AID 2366)
[3] = target: C-C chemokine receptor type 6 (Homo sapiens, UniProt P51684); assay: CCR6 receptor antagonists, dose response, cell-based, luminescent beta-arrestin readout (AID 504728); assay type: functional
[4] = target: Eukaryotic translation initiation factor 4E (Mus musculus, UniProt P63073); assay: eIF4E–eIF4G protein interaction inhibitors, dose response, biochemical, TR-FRET (AID 855); assay type: functional;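 further: potency for disrupting eIF4E binding to eIF4GI seen as loss of FRET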
HeLa = assay: HeLa cell cytotoxicity, dose response, cytotoxicity control, 24 h, cherry-picked samples (AID 504726); assay type: functional, cell-based; conditions: Homo sapiens;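 further: potency for cytotoxicity as loss of luminescence signal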
[5] = target: DNA damage-inducible transcript 3 protein (Mus musculus, UniProt P35639); assay type: functional, Cricetulus griseus
INS1 = assay: beta cell apoptosis inhibitors, cytokine rescue, dose response, luminescence, retest (AID 449756); assay type: functional, cell-based; conditions: Rattus norvegicus;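 further: cell death triggered by IL-1 beta plus TNF-alpha plus IFN-gamma mixture; protective hits raise ATP signal compared with cytokine alone wells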
Hexokinase HKDC1 = target: T2, Hexokinase HKDC1 (Homo sapiens, UniProt Q2TB90); assay: HKDC1 hexokinase inhibitors, dose response, biochemical, W721R variant (AID 504729); assay type: functional
T2 sequence (Q2TB90 whole entry): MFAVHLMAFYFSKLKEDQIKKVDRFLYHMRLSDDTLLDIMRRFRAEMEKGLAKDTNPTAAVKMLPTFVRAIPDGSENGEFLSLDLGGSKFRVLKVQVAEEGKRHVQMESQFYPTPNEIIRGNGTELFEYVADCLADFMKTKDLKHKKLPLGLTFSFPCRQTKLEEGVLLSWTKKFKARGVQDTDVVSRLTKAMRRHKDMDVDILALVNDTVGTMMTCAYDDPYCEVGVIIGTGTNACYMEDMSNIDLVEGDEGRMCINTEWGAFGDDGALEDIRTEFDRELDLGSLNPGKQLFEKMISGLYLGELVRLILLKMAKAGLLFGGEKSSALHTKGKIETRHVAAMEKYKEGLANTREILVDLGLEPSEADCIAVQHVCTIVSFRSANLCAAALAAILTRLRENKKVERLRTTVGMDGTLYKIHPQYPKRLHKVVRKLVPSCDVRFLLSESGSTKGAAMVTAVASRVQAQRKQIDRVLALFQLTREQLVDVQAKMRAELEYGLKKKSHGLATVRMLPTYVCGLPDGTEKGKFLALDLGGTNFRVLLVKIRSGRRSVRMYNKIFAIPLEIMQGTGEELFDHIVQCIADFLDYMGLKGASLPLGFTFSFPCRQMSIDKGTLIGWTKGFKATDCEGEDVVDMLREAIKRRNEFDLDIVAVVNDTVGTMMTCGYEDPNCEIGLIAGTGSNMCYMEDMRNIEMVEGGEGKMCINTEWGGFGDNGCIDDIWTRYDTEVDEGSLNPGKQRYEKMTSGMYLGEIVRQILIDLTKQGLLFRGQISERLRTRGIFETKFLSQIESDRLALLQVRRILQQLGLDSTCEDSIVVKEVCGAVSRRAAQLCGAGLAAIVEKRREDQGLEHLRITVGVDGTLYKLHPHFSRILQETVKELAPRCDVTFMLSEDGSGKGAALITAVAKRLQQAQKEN

Beta-galactosidase = Beta-galactosidase (Escherichia coli, UniProt Q8VNN2); assay: beta-galactosidase enzyme inhibitors and activators, dose response, artefact control for CCR6 antagonist project, biochemical, E. coli enzyme, set 3 (AID 504712); assay type: functional
[6] = target: Induced myeloid leukemia cell differentiation protein Mcl-1 (Homo sapiens, UniProt Q07820); assay type: functional
Coagulation factor XII = target: T3, Coagulation factor XII (Homo sapiens, UniProt P00748); assay type: functional;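 further: activated factor XIIa alpha cleaving a fluorogenic AMC peptide substrate; inhibitor potency from loss of enzyme activity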
T3 sequence (P00748 whole entry): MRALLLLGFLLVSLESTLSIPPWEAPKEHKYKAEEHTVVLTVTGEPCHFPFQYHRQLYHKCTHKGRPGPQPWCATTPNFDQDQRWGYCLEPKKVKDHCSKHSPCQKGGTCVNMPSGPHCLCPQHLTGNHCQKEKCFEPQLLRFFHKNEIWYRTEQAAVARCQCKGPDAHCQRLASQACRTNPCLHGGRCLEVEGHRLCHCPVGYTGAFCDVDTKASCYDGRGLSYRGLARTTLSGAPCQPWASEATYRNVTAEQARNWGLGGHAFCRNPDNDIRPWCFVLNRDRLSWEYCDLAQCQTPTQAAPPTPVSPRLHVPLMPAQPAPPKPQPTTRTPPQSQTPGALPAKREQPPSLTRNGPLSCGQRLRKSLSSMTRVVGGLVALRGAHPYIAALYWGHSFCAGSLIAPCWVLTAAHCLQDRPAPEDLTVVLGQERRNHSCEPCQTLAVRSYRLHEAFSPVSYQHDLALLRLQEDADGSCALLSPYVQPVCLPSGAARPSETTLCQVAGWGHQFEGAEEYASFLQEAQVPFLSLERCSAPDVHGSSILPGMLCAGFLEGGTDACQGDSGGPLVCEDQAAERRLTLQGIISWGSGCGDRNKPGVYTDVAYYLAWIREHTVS

Prothrombin = Prothrombin (Homo sapiens, UniProt P00734); assay: Thrombin 1536 HTS Dose Response Confirmation. [Related pubchem assays: 1046 (Thrombin 1536 HTS; hits were confirmed in this assay)]; assay type: functional
Genome polyprotein = Genome polyprotein (dengue virus type 2, UniProt P29990); assay: Dengue-2 NS5 methyltransferase inhibitors, primary screen, biochemical, confirmation dose response (AID 588689); assay type: functional
Fatty acid synthase [7] = target: T4, Fatty acid synthase (Homo sapiens, UniProt P49327); assay: FAS thioesterase domain inhibitors, dose response, biochemical, kinetic fluorescence intensity (AID 624326); assay type: functional;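 further: rate of fluorescence rise from hydrolysis of a fluorogenic O-methyl fluorescein ester substrate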
X-box-binding protein 1 = X-box-binding protein 1 (Homo sapiens, UniProt P17861); assay type: functional, Cricetulus griseus;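 further: confirmatory dose-response counter-screen serving a CHOP assay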
Fatty acid synthase [8] = target: T4, Fatty acid synthase; assay: FAS thioesterase domain inhibitors, dose response, biochemical, endpoint fluorescence intensity, uHTS hits (AID 624327); assay type: functional;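 further: fluorescence from hydrolysis of an O-methyl fluorescein acyl ester substrate by the enzyme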
[9] = target: Envelope glycoprotein gp160 (Human immunodeficiency virus 1, UniProt Q6QLK5); assay: inhibitors of HIV fusion peptide binding, primary screen, biochemical, uHTS, fluorescence dequenching (AID 1986)
[10] = target: T5, Corticotropin-releasing factor receptor 2/Corticotropin-releasing factor-binding protein (Homo sapiens, UniProt P24387+Q13324); assay: activators of CRF receptor 2 with binding protein – uHTS hits, confirmation (AID 602473); assay type: functional; conditions: read-out: EC50_Mean
T5 sequence (Q13324 whole entry): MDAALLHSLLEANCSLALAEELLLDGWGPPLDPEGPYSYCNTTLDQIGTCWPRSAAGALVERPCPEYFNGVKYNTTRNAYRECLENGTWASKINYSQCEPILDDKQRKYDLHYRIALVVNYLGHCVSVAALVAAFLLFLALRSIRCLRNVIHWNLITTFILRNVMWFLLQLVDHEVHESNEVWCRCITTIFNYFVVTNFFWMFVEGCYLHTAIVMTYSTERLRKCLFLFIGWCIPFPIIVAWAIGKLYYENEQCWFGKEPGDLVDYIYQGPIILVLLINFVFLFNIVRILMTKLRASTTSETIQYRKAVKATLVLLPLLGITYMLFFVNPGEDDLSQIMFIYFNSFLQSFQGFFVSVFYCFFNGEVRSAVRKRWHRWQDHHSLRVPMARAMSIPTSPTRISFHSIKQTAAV
T5 sequence (P24387 whole entry): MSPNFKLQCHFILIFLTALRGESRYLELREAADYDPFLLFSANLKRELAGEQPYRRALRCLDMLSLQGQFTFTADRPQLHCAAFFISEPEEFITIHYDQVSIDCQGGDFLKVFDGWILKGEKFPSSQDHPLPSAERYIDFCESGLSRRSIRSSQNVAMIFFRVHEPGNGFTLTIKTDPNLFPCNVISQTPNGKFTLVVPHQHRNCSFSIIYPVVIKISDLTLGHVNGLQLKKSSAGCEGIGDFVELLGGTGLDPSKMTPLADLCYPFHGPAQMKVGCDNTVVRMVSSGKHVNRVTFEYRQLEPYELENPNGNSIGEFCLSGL

[11] = target: T6, Carboxy-terminal domain RNA polymerase II polypeptide A small phosphatase 1 (Homo sapiens, UniProt Q9GZU7); assay: inhibitors of CTDSP1, concentration-response testing, biochemical assay, absorbance-based, actives from ultra-high-throughput screening (AID 540297); assay type: functional
T6 sequence (Q9GZU7 whole entry): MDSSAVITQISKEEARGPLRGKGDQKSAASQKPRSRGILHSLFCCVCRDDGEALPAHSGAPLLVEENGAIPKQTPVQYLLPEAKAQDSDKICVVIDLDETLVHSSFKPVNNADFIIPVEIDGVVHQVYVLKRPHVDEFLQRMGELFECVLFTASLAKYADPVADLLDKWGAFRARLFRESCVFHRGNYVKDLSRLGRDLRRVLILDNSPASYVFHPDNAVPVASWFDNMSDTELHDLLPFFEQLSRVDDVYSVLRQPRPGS

[12] = target: T5, Corticotropin-releasing factor receptor 2/Corticotropin-releasing factor-binding protein; assay: Dose Response confirmation of uHTS hits for small molecule antagonists of the CRF-binding protein and CRF-R2 receptor complex.; assay type: functional; conditions: read-out: IC50_Mean
[13] = CRF-BP/CRF-R2 complex antagonists, dose response, cell-based, uHTS hits, 384-well (AID 651639); assay type: functional, Homo sapiens; conditions: read-out: IC50_Mean
[14] = target: Melanin-concentrating hormone receptor 1 (Homo sapiens, UniProt Q99705); assay: Late-stage fluorescence-based counterscreen for antagonists of the G-protein coupled receptor 7 (GPR7): cell-based dose response assay to identify antagonists of the melanin-concentrating hormone receptor 1 (MCHR1). [Related pubchem assays (depositor defined):AID1861, AID1880, AID1952, AID2148, AID2251, AID2257, AID485339]; assay type: functional;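 further: stimulated with 30 nM MCH peptide agonist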
[15] = target: Neuropeptides B/W receptor type 1 (Homo sapiens, UniProt P48145); assay: GPR7 antagonist potency, late-stage follow-up, cell-based, fluorescence, dose response (AID 463251); assay type: functional
[16] = target: T7, Scavenger receptor class B member 1 (Mus musculus, UniProt Q61009); assay: inhibitors of SR-BI mediated HDL lipid uptake, dose response, ldlA[mSR-BI] cells, fluorescence, cherry pick (AID 493194); assay type: functional, cell-based;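 further: cellular uptake of fluorescent DiI-labeled HDL measured as cell fluorescence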
T7 sequence (Q61009 whole entry): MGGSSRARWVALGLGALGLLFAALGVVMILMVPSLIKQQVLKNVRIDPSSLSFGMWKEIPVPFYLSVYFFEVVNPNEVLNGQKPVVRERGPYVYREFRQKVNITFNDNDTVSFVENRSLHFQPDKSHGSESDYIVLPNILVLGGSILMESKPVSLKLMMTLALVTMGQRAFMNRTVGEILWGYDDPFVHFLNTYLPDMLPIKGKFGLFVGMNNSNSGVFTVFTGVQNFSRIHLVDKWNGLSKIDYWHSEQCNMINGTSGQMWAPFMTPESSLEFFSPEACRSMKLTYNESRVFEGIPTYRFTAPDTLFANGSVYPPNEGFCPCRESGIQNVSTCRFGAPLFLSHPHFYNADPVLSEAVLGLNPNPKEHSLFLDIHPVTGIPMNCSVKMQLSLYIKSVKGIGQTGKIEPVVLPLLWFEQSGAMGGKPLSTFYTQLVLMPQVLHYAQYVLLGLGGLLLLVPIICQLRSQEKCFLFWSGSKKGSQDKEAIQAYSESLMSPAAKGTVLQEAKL

[17] = target: Dual specificity protein phosphatase 3 (Homo sapiens, UniProt P51452); assay: VHR1 inhibitor Ki determination, SAR follow-up, biochemical, colorimetric (AID 2004)
Dual specificity protein phosphatase 3, sequence (P51452 whole entry): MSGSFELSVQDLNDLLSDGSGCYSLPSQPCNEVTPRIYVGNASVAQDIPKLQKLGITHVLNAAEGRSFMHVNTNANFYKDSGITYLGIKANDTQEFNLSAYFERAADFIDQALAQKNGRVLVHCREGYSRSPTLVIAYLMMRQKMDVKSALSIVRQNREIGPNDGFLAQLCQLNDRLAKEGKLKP

DNA damage-inducible transcript 3 protein, sequence (P35639 whole entry): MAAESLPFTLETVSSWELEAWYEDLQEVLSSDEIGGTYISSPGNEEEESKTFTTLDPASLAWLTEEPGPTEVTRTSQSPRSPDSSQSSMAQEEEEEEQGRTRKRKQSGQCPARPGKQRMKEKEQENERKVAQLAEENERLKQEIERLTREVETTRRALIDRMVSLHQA
T4 sequence (P49327 whole entry, the tested form may be a part): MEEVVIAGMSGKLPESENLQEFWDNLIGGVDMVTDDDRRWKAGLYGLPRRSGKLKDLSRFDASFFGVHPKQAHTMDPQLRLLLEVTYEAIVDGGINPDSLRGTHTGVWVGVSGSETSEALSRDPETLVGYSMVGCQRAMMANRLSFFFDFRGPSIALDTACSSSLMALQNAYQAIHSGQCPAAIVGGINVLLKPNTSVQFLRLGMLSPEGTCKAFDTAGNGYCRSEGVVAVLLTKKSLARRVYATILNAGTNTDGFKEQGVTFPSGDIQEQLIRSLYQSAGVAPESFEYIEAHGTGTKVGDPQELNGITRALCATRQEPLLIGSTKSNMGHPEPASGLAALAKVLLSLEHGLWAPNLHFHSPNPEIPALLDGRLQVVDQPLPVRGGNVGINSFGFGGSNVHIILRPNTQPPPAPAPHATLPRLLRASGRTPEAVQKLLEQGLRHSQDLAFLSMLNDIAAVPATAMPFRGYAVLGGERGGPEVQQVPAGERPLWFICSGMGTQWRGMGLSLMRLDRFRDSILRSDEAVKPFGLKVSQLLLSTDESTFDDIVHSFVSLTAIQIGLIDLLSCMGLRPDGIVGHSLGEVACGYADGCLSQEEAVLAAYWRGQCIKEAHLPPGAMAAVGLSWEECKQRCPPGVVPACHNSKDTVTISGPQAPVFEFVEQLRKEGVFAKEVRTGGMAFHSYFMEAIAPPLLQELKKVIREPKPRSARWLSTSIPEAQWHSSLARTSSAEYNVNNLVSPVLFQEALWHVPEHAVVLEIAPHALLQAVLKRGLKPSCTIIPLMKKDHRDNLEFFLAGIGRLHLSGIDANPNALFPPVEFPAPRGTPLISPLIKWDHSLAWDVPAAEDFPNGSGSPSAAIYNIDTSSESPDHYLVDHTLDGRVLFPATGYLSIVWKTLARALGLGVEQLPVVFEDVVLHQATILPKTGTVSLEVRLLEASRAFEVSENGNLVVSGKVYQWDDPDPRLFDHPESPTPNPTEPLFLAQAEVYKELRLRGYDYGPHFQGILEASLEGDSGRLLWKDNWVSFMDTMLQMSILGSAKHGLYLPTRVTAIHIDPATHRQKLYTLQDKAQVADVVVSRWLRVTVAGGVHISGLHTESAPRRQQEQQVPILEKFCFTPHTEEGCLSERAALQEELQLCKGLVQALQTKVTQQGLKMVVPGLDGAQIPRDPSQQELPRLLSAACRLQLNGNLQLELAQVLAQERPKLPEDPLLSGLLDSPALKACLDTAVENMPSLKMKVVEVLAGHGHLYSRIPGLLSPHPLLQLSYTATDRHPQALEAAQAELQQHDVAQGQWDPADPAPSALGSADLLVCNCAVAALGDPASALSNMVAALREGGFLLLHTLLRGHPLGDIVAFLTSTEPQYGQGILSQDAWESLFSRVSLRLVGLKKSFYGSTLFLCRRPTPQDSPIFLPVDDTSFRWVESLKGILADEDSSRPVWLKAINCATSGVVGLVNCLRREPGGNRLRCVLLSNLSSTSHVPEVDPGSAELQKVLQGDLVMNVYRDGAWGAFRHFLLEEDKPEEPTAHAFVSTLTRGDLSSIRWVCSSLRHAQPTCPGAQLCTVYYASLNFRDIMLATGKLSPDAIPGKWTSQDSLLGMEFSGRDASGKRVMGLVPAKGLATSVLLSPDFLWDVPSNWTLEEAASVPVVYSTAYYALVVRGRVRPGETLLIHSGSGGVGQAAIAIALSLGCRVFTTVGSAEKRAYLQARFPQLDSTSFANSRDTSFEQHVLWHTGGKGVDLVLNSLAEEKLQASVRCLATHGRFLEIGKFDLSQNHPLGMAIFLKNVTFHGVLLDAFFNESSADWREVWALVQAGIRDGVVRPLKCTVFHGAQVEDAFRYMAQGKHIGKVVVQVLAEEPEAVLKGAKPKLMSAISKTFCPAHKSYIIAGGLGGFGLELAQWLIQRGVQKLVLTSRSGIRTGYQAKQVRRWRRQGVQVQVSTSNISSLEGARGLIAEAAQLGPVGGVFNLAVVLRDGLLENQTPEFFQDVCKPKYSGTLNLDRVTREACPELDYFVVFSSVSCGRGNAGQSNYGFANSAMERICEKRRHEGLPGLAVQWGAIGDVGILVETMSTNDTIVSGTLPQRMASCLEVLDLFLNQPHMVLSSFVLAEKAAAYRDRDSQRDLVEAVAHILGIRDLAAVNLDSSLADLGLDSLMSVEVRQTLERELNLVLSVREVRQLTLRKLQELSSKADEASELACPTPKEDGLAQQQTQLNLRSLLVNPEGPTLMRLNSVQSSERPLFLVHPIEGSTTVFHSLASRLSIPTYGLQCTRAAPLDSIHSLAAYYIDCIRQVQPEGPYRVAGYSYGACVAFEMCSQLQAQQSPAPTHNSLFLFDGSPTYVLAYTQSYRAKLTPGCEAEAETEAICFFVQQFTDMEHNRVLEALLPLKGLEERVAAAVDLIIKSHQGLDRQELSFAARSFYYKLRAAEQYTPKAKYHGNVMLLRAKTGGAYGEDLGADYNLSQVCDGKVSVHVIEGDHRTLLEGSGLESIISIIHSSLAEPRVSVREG
T1 sequence (Q9Y570 whole entry): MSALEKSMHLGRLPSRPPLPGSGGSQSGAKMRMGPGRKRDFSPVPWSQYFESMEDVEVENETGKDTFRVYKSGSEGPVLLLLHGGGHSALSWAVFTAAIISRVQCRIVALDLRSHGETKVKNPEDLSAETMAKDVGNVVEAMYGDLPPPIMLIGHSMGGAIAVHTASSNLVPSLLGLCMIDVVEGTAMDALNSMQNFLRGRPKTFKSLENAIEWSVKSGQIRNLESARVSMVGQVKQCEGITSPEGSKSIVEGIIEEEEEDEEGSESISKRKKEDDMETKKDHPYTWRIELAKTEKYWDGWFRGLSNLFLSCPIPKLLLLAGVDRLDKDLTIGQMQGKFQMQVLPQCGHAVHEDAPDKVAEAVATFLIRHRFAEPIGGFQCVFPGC
Envelope glycoprotein gp160, sequence (Q6QLK5 whole entry, the tested form may be a part): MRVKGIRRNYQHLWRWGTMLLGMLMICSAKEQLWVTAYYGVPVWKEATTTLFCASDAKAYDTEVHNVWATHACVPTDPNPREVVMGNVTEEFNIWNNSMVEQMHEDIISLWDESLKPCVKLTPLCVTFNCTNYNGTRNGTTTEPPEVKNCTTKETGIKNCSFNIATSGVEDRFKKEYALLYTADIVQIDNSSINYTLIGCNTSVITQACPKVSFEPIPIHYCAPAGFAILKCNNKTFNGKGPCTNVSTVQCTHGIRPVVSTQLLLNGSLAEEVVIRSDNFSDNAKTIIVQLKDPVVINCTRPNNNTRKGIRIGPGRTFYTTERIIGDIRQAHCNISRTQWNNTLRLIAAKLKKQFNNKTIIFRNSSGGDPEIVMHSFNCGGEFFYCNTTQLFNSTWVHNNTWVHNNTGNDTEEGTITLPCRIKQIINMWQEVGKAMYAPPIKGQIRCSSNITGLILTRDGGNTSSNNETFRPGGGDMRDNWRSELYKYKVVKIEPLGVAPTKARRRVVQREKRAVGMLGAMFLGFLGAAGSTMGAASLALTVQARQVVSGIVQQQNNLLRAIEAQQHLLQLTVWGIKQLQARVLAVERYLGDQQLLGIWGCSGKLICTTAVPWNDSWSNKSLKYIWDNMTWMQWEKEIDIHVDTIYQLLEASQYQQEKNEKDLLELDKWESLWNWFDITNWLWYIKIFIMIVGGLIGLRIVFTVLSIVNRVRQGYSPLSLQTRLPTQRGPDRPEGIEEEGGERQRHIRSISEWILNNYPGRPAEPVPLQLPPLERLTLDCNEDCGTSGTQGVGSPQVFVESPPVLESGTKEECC
Neuropeptides B/W receptor type 1, sequence (P48145 whole entry): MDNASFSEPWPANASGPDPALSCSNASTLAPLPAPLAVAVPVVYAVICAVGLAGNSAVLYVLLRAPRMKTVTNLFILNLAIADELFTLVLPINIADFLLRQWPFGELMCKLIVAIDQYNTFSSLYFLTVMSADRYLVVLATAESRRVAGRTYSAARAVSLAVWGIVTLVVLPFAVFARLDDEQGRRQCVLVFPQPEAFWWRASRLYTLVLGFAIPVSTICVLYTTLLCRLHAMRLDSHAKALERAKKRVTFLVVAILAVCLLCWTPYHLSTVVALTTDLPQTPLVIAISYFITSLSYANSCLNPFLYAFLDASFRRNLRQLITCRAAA
C-C chemokine receptor type 6, sequence (P51684 whole entry): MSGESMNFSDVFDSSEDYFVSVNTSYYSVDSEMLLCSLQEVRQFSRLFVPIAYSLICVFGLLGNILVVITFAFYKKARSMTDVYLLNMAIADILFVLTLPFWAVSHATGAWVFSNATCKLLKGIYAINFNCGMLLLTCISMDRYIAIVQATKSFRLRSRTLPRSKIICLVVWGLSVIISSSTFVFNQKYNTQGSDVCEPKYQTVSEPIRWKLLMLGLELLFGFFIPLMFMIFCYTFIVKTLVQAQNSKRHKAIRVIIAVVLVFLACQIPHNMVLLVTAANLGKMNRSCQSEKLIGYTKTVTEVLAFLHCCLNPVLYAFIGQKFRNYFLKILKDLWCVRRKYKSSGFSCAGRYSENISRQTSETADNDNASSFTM
Eukaryotic translation initiation factor 4E, sequence (P63073 whole entry): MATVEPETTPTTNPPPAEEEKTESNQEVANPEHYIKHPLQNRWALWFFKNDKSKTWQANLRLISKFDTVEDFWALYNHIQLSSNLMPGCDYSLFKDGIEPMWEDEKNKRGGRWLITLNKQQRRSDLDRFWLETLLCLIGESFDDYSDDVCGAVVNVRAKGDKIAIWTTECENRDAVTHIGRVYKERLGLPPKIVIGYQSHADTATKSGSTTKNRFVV

SMILES: CS(=O)(=O)C(C#N)Cc1cccn1S(=O)(=O)c1ccccc1 (stereo unspecified)
- IC50 [1]: > 20 µM (not active)
- IC50 [2]: > 20 µM (inactive)

SMILES: Cc1ccc(S(=O)(=O)/N=C2/C=C(Sc3nc[nH]n3)C(=O)c3ccccc32)cc1
- IC50 [3]: 3.12 µM (active)
- IC50 [4]: > 64 µM (inactive)
- AC50 (HeLa): 23.1 µM (active)
- Absolute IC50 (CHOP) [5]: 10 µM
- AC50 (INS1): 6.84 µM (active)
- IC50 (Hexokinase HKDC1): 1.8 µM (active)
- IC50 (Beta-galactosidase): > 66.6 µM (inactive)
- IC50 [6]: 19.7 µM (active)

SMILES: Cc1ccc(C)c(S(=O)(=O)ON2C(=O)c3ccccc3C2=O)c1
- IC50 (Coagulation factor XII): 2.59 µM (active)
- IC50 (Prothrombin): 1.57 µM (active)
- Absolute IC50 (CHOP) [5]: 10 µM
- IC50 (Genome polyprotein): > 100 µM (active)
- IC50 (Fatty acid synthase [7]): 3.7 µM (active)
- Absolute IC50 (XBP1) (X-box-binding protein 1): 10 µM
- IC50 (Fatty acid synthase [8]): 1.72 µM (active)

SMILES: COc1cc(/C=C2\C(=N)N3N=C(S(C)(=O)=O)SC3=NC2=O)ccc1OCCOc1ccc(C)cc1
- IC50 [9]: > 99 µM (inactive)
- EC50 [10]: > 53 µM (inactive)
- IC50 [11]: 3.15 µM (active)
- IC50 [12]: 1.84 µM (active)
- IC50 [13]: 4.48 µM (active)

SMILES: CCOC(=O)c1cccc(-n2ncc(Cl)c(Oc3ccc(OC)cc3)c2=O)c1
- IC50 [14]: 3.7 µM (active)
- IC50 [15]: 1.1 µM (active)

SMILES: CC(OC(=O)c1cccc(NS(C)(=O)=O)c1)C(=O)Nc1ccc(N2CCOCC2)cc1 (stereo unspecified)
- AC50 [16]: 1.56 µM (active)

SMILES: S=C(NCCN1CCOCC1)Nc1ccccc1
- Ki [17]: 64.3 µM (inactive)

Reference: ChEMBL document CHEMBL1201862, “PubChem BioAssay data set” (2004)
